This note sets out measurements from patent publication US20090029355A1, “Abnormalities of Phosphatase 2A (PP2A) for Diagnosis and Treatment of Alzheimer's Disease” (priority 2004, published 2009).

Entries after “also recorded” stand apart in the source; their conditions may differ.

Assay [1] concerns Erk1/2 phosphorylation in AC cells. As to the kind of experiment: Erk1/2 phosphorylation on Western blots in AC fibroblasts. The settings on record: about 10 nM OA, about 10 nM BK, about 10 min. The format is cell-based, human. On the procedure:
(§1) After serum-starving overnight, cells are treated as such: 1) BK treatment for about 10 min, 2) pretreatment with about 10 nM OA for about 15 min followed by BK treatment and another dose of OA for about 10 min. Reactions are terminated, cells are lysed in a lysis buffer, and the extent of Erk1/2 phosphorylation and levels of the total Erk1/2 are determined using Western blots. After normalizing with signals of the total Erk1/2, the ratio of BK-stimulated Erk1/2 phosphorylation in the presence and absence of OA is calculated. […]
(§2) Erk1/2 phosphorylation from different treatments was determined on Western blots using an anti-phospho-Erk1/2 antibody (Cell Signaling Technology), the total amount of Erk1/2 protein loaded on the SDS gel was determined by an anti-regular Erk1/2 antibody (Upstate Biotechnology), and was used to normalize the detected phospho-Erk1/2 signals.
(§3) (1) Quantitative PCR values for PP2A mRNA in each sample of 19 AC and 19 AD cell lines were normalized by those of GPDH in the same sample. […] The densitometric values for PP2A were normalized by those of annexin 11 and quantified with UN-SCAN-IT software (Silk Scientific, Inc.) (3) To assess Erk1/2 phosphorylation, ratios for phospho-Erk1/2 over those of the total Erk1/2 were calculated. […]

Assay [2] has as its system Erk1/2 phosphorylation in AD cells. Put plainly: Erk1/2 phosphorylation on Western blots in AD fibroblasts. The format is cell-based, human. The settings on record: about 10 nM OA, about 10 nM BK, about 10 min. How it is done: as §1, §2, §3
Background: Immunoblotting shows a protein as a band on a membrane.

As for `C=C1[C@@H](O)[C@@H]2O[C@]3(CC[C@H](/C=C/[C@@H](C)[C@@H]4CC(C)=C[C@@]5(O[C@H](C[C@@](C)(O)C(=O)O)CC[C@H]5O)O4)O3)CC[C@H]2O[C@@H]1[C@@H](O)C[C@H](C)[C@H]1O[C@@]2(CCCCO2)CC[C@H]1C` [OA, okadiac acid], the “Erk1/2 dephosphorylation after BK stimulation in the presence of OA” value in assay [1] is on record as “inhibited Erk1/2 dephosphorylation; also recorded: significantly inhibited”. Also, the “BK-stimulated Erk1/2 phosphorylation on addition of OA” value in assay [2] is “did not further increase Erk1/2 phosphorylation”.
